Measured values reported in paper PMC12669278, “VDAC1-interacting proteins: binding site mapping and their derived peptides induce apoptosis and multifaceted cellular effects” (Apoptosis, 2025).

Molecular target: purified VDAC1 (Homo sapiens, UniProt P21796)
Test: Glass-bound peptide array probed with purified VDAC1 and anti-VDAC1 antibodies
Format: binding
Design: key: +: low; ++: medium; +++: high
Details: glass-bound peptide array incubated 4 h with purified VDAC1 (64 nM), chemiluminescence; for Spot intensity, detected using anti-N-terminus VDAC1: antibody against VDAC1 N-terminus; for Spot intensity, detected using anti-VDAC1 internal sequence: antibody against VDAC1 amino acids 150-250
Experimental: A customized peptide array was produced by INTAVIS Peptide Services (GmbH & Co. KG, Tübingen, Germany). It comprised 768 peptide sequences derived from 19 VDAC1-interacting proteins that were arrayed on a glass slide. Each peptide was composed of 25 amino acids with an overlap of 15 amino acids with the peptides before and following it.
The interaction of purified VDAC1 with glass-bound peptide arrays was assessed by washing the slide three times, 10 min each, with TBST (150 mM NaCl, 50 mM Tris/HCl, pH 7.4, 0.1% Tween-20), followed by overnight incubation with blocking buffer (TBS, pH 7.8, containing low-fat dry milk, 2.5%, w/v) at 4 °C. Then slides were incubated with purified VDAC1 in protein-interacting buffer (20 mM HEPES, 100 mM KCl, pH,7.4, PBS) for 4 h at room temperature (RT). After washing, with TBST, slides were incubated overnight at 4 °C with anti-VDAC1 antibody against a sequence of 150–250 amino acids or against the VDAC1-N-terminus. Slides were then washed with TBST, followed by the appropriate secondary anti-HRP conjugated antibody for 2 h at RT. They were washed again with TBST and developed using enhanced chemiluminescence EZ-ECL (Biological Industries), according to the manufacturer’s instructions. The signal was captured in the dark using FUSION-FX (Vilber Lourmat) software.

Chain of purified VDAC1 (P21796 whole entry, species assumed): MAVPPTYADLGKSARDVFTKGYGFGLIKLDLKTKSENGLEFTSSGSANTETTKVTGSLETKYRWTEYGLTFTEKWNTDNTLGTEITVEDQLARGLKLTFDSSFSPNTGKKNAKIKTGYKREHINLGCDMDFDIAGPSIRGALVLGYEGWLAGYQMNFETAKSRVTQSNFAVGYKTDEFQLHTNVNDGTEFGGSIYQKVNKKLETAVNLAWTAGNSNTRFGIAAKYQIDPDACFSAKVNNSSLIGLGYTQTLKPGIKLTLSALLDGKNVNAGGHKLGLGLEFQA

Spot intensity, detected using anti-N-terminus VDAC1	Spot intensity, detected using anti-VDAC1 internal sequence	Sequence
+	–	GGVFTKLINRNTTIPTKKSQVFSTA [2O21, array peptide from HSP-70]
+	–	RAVQHREVQGFESATFLGYFKSGLK [2G18, array peptide from gelsolin isoform b]
+++	+	LVFHSFGGGTGSGFTSLLMERLSVD [2A3, array peptide from tubulin alpha 1b]
++	+	TDVLLLDVTPLSLGIETLGGVFTKL [2O19, array peptide from HSP-70]
+	–	KVQRAVCMLSNTTAIAEAWARLDHK [2B5, array peptide from tubulin alpha 1b]
++	+	ASIHGYLGIVELLVSLGADVNAQEP [2F17]
++	+	ERPLTKDNHLLGTFDLTGIPPAPRG [2L22, array peptide from BiP1]
+	–	TEDELPYDDCVFGGQRLTL [2G6]
+	–	GGGPTSSEQIMKTGALLLQGFIQDR [1A21, array peptide from BAX]
++	–	KDFLAGGIAAAISKTAVAPIERVKL [1F13, array peptide from ANT3]
+++	+++	SILEIQKGVFEVKSTNGDTFLGGED [2N23, array peptide from HSP-70]
+	–	FTEDELPYDDCVFGGQRLTL [2G5]
++	–	TPPPAEEEEDELYRQSLEIISRYLR [2D22, array peptide from Mcl-1]
++	–	GTATQMRQSSSWTRVFQSWWDRNLG [1A16, array peptide from BAD]
–	++	YKSEGTFGIHVAENPSIQLLEGNPG [1L13, array peptide from MAVS]
+	–	GKEPAHLMSLFGGKPMIIYKGGTSR [2I13, array peptide from gelsolin isoform b]

Spot intensity, detected using anti-N-terminus VDAC1	Spot intensity, detected using anti-VDAC1 internal sequence	Sequence
+++	–	AGATSSLTPSRGPVSPSVSFQPLAR [1K9, array peptide from MAVS]
–	+++	KFHGTVKAENGKLVINGNPITIFQE [2B20, array peptide from GAPDH1]
+	+++	VSSITASLRFDGALNVDLTEFQTNL [2A14, array peptide from tubulin alpha 1b]
+++	++	KIISNASCTTNCLAPLAKVIHDNFG [2C6, array peptide from GAPDH1]
+	–	SKLVLKALCTKVPELIRTIMGWTLD [1B9, array peptide from BAX]
+	–	YKGGTSREGGQTAPASTRLFQVRAN [2I15, array peptide from gelsolin isoform b]
+	–	EDFSETLTRAKFEELNMDLFRSTMK [2L5, array peptide from BiP1]
+++	–	MVVEHPEFLKAGKEPGLQIWRVEKF [2G8, array peptide from gelsolin isoform b]
+	–	FVDWCPTGFKVGINYQPPTVVPGGD [2B2, array peptide from tubulin alpha 1b]
+	–	RYGRELRRMSDEFVDSFKKGLPRPK [1A13, array peptide from BAD]
+	–	GRTWNDPSVQQDIKFLPFKVVEKKT [2K5, array peptide from BiP1]
++	–	DDEGMGEEPSPFRGRSRSAPPNLWA [1A10, array peptide from BAD]
+++	–	IMKTGALLLQGFIQDRAGRMGGEAP [1A22, array peptide from BAX]
++	–	ALSSQHQARIEIESFYEGEDFSETL [2L3, array peptide from BiP1]
+	–	RGPTAARHQDSWNGLSHEAFRLVSR [2M21, array peptide from HSP-70]

The next lines start with the sequence.

Sequence	Spot intensity, detected using anti-N-terminus VDAC1	Spot intensity, detected using anti-VDAC1 internal sequence
EVAASAILTAQLDEELGGTPVQSRV [2I10, array peptide from gelsolin isoform b]	–	+
FRGLGDCLVKITKSDGIRGLYQGFS [1G5, array peptide from ANT3]	+++	–
KLQMGKKLPLHLTLPQALPQYAGSG [1N5, array peptide from CD4]	++	–
TGSGFTSLLMERLSVDYGKKSKLEF [2A4, array peptide from tubulin alpha 1b]	+	+
QGCLASVGVLTQSCTTPHLHSILKA [2F13]	++	–
VDCIVRIPKEQGVLSFWRGNLANVI [1F18, array peptide from ANT3]	++	–
HSSYPAGTEDDEGMGEEPSPFRGRS [1A9, array peptide from BAD]	++	–
TAFQGMLRKLDIKNEDDVKSLSRVM [2E5, array peptide from Mcl-1]	+	–
LLGTFDLTGIPPAPRGVPQIEVTFE [2L23, array peptide from BiP1]	+++	+
SPFRGRSRSAPPNLWAAQRYGRELR [1A11, array peptide from BAD]	+	–
ISAMVLTKMKETAEAYLGKKVTHAV [2K10, array peptide from BiP1]	++	–
FDGALNVDLTEFQTNLVPYPRIHFP [2A15, array peptide from tubulin alpha 1b]	–	++
ELEEIVQPIISKLYGSAGPPPTGEE [2M15, array peptide from BiP1]	++	+++
MEVIRQVKGDLAFLNFQNNLQQTPL [2F6]	+	–
LIGIPPAPRGVPQIEVTFDIDANGI [2P3, array peptide from HSP-70]	+	–
FKDKYKQIFLGGVDKHTQFWRYFAG [1F22, array peptide from ANT3]	+	–
AKYDDIKKVVKQASEGPLKGILGYT [2C18, array peptide from GAPDH1]	+++	++

Sequence	Spot intensity, detected using anti-N-terminus VDAC1	Spot intensity, detected using anti-VDAC1 internal sequence
IKKKEERADLIAYLKKATNE [1D16, array peptide from cytochrome c]	++	+
YQVSPLAARLLYPYLAWLAFTTTLN [1H11, array peptide from TSPO]	–	+
NGKLVINGNPITIFQERDPSKIKWG [2B21, array peptide from GAPDH1]	+	–
PASTGAAKAVGKVIPELNGKLTGMA [2C13, array peptide from GAPDH1]	+	–
TVPTPHLDGKHVVFGQVIKGIGVAR [1I7, array peptide from cyclophilin D]	+	–
DELYRQSLEIISRYLREQATGAKDT [2D23, array peptide from Mcl-1]	–	+
VGKVIPELNGKLTGMAFRVPTANVS [2C14, array peptide from GAPDH1]	+++	–
MGKVKVGVNGFGRIGRLVTRAAFNS [2B14, array peptide from GAPDH1]	+++	–
SPPSTLTPDSRRVARPPPIGAEVPD [2D11, array peptide from Mcl-1]	+	–
MTEQAISFAKDFLAGGIAAAISKTA [1F12, array peptide from ANT3]	+	–
DQGGWGLPLAESLKRLMSLSPGRPP [1B13, array peptide from BAX]	+++	+
PYQLTWGRPSTRIQQQLGQLTLENL [2F24]	+++	–
NMKLTRAQFEGIVTDLIRRTIAPCQ [2O9, array peptide from HSP-70]	+	++
KGLPRPKSAGTATQMRQSSSWTRVF [1A15, array peptide from BAD]	++	–
IEDFKAKKKELEEIVQPIISKLYGS [2M14, array peptide from BiP1]	++	++
RVVALFYFASKLVLKALCTKVPELI [1B8, array peptide from BAX]	++	–
